Assay results taken from patent US9221822B2, “Thiazolopyrimidine modulators as immunosuppressive agents” (Katholieke Universiteit Leuven, K.U.Leuven R&D, priority 2009, dated 2015).
pIC50: −log10 of the molar value.

What follows are compounds tested on Human peripheral blood mononuclear cells (PBMCs) as Responder cells, RPMI 1788 Stimulator cells (assay: Mixed Lymphocyte Reaction (MLR) test). Conditions: Homo sapiens, RPMI-1788, lowest concentration giving 50% inhibition of the MLR; 6 days coculture, 3H-thymidine incorporation.
Format: cell-based
Description: Human peripheral blood mononuclear cells (PBMCs) were isolated from buffy coats, obtained from healthy blood donors by Ficoll (Lymphoprep, Axis-Shield PoC AS, Oslo, Norway) density-gradient centrifugation. The cells at the Ficoll-plasma interface were washed three times and used as “Responder” cells. RPMI 1788 (ATCC, N^o CCL-156) cells were treated with mitomycin C (Kyowa, Nycomed, Brussel, Belgium) and used as “Stimulator” cells. Responder cells (0.12×10^6), Stimulator cells (0.045×10^6) and compounds (in different concentrations) were cocultured for 6 days in RPMI 1640 medium (BioWhittaker, Lonza, Belgium) supplemented with 10% fetal calf serum, 100 U/ml Geneticin (Gibco, LifeTechnologies, UK). Cells were cultured in triplicate in flat-bottomed 96-well microtiter tissue culture plates (TTP, Switzerland). After 5 days, cells were pulsed with 1 μCi of methyl-^3H thymidine (MP Biomedicals, USA), harvested 18 h later on glass filter paper and counted. Proliferation values were expressed as counts per minute (cpm), and converted to % inhibition with respect to a blank MLR test (identical but without added compound). […]

`COc1ccc(CCc2nc3c(N4CCN(C(=O)COc5ccc(Br)cc5)CC4)nc(N)nc3s2)cc1OC` [Example 256, 1-(4-(5-amino-2-(3,4-dimethoxyphenethyl)thiazolo[5,4-d]pyrimidin-7-yl)piperazin-1-yl)-2-(4-bromophenoxy)ethanone] and `Nc1nc(N2CCN(C(=O)COc3ccc(Br)cc3)CC2)c2nc(Cc3ccc(F)cc3)sc2n1` [Example 231, 1-(4-(5-amino-2-(4-fluorobenzyl)thiazolo[5,4-d]pyrimidin-7-yl)piperazin-1-yl)-2-(4-bromophenoxy)ethanone] are within 0.2 log units of each other in pIC50: 6.13 for the first, 6.26 for the second.

Compared with `COc1ccc(OCC(=O)N2CCN(c3nc(N)nc4sc(-c5ccc(C)cc5)nc34)CC2)cc1` [Example 294, 1-(4-(5-amino-2-p-tolylthiazolo[5,4-d]pyrimidin-7-yl)piperazin-1-yl)-2-(4-methoxyphenoxy)ethanone], `Nc1nc(N2CCN(C(=O)COc3ccc(Br)cc3)CC2)c2nc(-c3ccc(F)cc3)sc2n1` [Example 235, 1-(4-(5-amino-2-(4-fluorophenyl)thiazolo[5,4-d]pyrimidin-7-yl)piperazin-1-yl)-2-(4-bromophenoxy)ethanone] is 0.22 log units higher in pIC50: 6.12 for the first, 6.34 for the second. The second is the more potent here.

Compared with `Nc1nc(N2CCN(C(=O)COc3cccc([N+](=O)[O-])c3)CC2)c2nc(-c3ccc(F)cc3)sc2n1` [Example 129, 5-amino-2-(4-fluorophenyl)-7-(4-[2-(3-nitrophenoxy)acetyl]-piperazin-1-yl)-thiazolo[5,4-d]pyrimidine], `Nc1nc(N2CCN(C(=O)COc3cccc([N+](=O)[O-])c3)CC2)c2nc(-c3ccc(F)cc3)oc2n1` [Example 193, 5-amino-2-(4-fluorophenyl)-7-(4-[2-(3-nitrophenoxy)acetyl]-piperazin-1-yl)-oxazolo[5,4-d]pyrimidine] is 0.39 log units lower in pIC50: 6.54 for the first, 6.15 for the second.

First: COc1ccc(OCC(=O)N2CCN(c3nc(N)nc4sc(Cc5ccc(F)cc5)nc34)CC2)cc1 [Example 230, 1-(4-(5-amino-2-(4-fluorobenzyl)thiazolo[5,4-d]pyrimidin-7-yl)piperazin-1-yl)-2-(4-methoxyphenoxy)ethanone]
Second: Nc1nc(N2CCN(C(=O)COc3ccc(F)cc3)CC2)c2nc(-c3cccnc3)sc2n1 [Example 272, 1-(4-(5-amino-2-(pyridin-3-yl)thiazolo[5,4-d]pyrimidin-7-yl)piperazin-1-yl)-2-(4-fluorophenoxy)ethanone]
The pIC50 of the first is 1.35 log units lower: 6.57 for the first, 7.92 for the second. The second is the more potent here.

Compared with `Nc1nc(N2CCN(C(=O)COc3ccc(F)cc3)CC2)c2cc(-c3ccccc3)sc2n1` [Example 370, 1-(4-(2-amino-6-phenylthieno[2,3-d]pyrimidin-4-yl)piperazin-1-yl)-2-(4-fluorophenoxy)ethanone], `Nc1nc(N2CCN(C(=O)COc3ccccc3)CC2)c2nc(-c3ccc(F)cc3)sc2n1` [Example 130, 5-amino-2-(4-fluorophenyl)-7-(4-(2-phenoxyacetyl)-piperazin-1-yl)-thiazolo[5,4-d]pyrimidine] is 0.72 log units lower in pIC50: 7.18 for the first, 6.46 for the second.

Compared with `Cc1cccc(OCC(=O)N2CCN(c3nc(N)nc4sc(-c5ccco5)nc34)CC2)c1` [Example 210, 1-(4-(5-amino-2-(furan-2-yl)thiazolo[5,4-d]pyrimidin-7-yl)piperazin-1-yl)-2-(m-tolyloxy)ethanone], `Nc1nc(N2CCN(C(=O)COc3ccc(Cl)cc3)CC2)c2nc(-c3ccncc3)sc2n1` [Example 281, 1-(4-(5-amino-2-(pyridin-4-yl)thiazolo[5,4-d]pyrimidin-7-yl)piperazin-1-yl)-2-(4-chlorophenoxy)ethanone] is 0.25 log units higher in pIC50: 7.14 for the first, 7.39 for the second.

First: Cc1cccc(NC(=O)N2CCN(c3nc(N)nc4sc(-c5ccccc5)cc34)CC2)c1 [Example 330, 4-(2-amino-6-phenylthieno[2,3-d]pyrimidin-4-yl)-N-m-tolylpiperazine-1-carboxamide]
Second: CC(C)(Oc1ccc(Cl)cc1)C(=O)N1CCN(c2nc(N)nc3sc(-c4ccccc4)cc23)CC1 [Example 373, 1-(4-(2-amino-6-phenylthieno[2,3-d]pyrimidin-4-yl)piperazin-1-yl)-2-(4-chlorophenoxy)-2-methylpropan-1-one]
The pIC50 of the first is 0.87 log units higher: 6.03 for the first, 5.16 for the second.

First: Nc1nc(N2CCN(CCOc3ccccc3)CC2)c2nc(CCc3ccc(F)cc3)oc2n1 [Example 197, 5-amino-2-[2-(4-fluorophenyl)ethyl]-7-(4-(2-phenoxyethyl)piperazin-1-yl)-oxazolo[5,4-d]pyrimidine]
Second: Nc1nc(N2CCN(CCOc3ccccc3)CC2)c2cc(-c3ccccc3)sc2n1 [Example 337, 4-(4-(2-phenoxyethyl)piperazin-1-yl)-6-phenylthieno[2,3-d]pyrimidin-2-amine]
The pIC50 of the first is 0.69 log units higher: 5.71 for the first, 5.02 for the second. The first is the more potent here.

First: CCCc1nc2c(N3CCN(C(=O)COc4ccc(Cl)cc4)CC3)nc(N)nc2[nH]1 [Example 397, 1-(4-(2-amino-8-propyl-9H-purin-6-yl)piperazin-1-yl)-2-(4-chlorophenoxy)ethanone]
Second: Nc1nc(N2CCN(C(=O)COc3ccc(Cl)cc3)CC2)c2nc(SC3CCCC3)[nH]c2n1 [Example 429, 1-(4-(2-amino-8-(cyclopentylthio)-9H-purin-6-yl)piperazin-1-yl)-2-(4-chlorophenoxy)ethanone]
The pIC50 of the first is 0.26 log units lower: 6.03 for the first, 6.29 for the second.

First: NC(=O)c1nc(N2CCN(C(=O)COc3ccc(Cl)cc3)CC2)c2cc(-c3ccc(F)cc3)sc2n1 [Example 355, 4-(4-(2-(4-chlorophenoxy)acetyl)piperazin-1-yl)-6-(4-fluorophenyl)thieno[2,3-d]pyrimidine-2-carboxamide]
Second: Nc1nc(N2CCN(C(=O)COc3ccc(Cl)cc3)CC2)c2nc(-c3ccc(Cl)cc3)[nH]c2n1 [Example 392, 1-(4-(2-amino-8-(4-chlorophenyl)-9H-purin-6-yl)piperazin-1-yl)-2-(4-chlorophenoxy)ethanone]
The pIC50 of the first is lower: < 5.00 for the first, 6.27 for the second. The second is the more potent here.

Going from `Nc1nc(N2CCN(C(=O)COc3ccc(Cl)cc3)CC2)c2nc(-c3ccc(C(F)(F)F)cc3)[nH]c2n1` [Example 394, 1-(4-(2-amino-8-(4-(trifluoromethyl)phenyl)-9H-purin-6-yl)piperazin-1-yl)-2-(4-chlorophenoxy)ethanone] to `Nc1nc(N2CCN(C(=O)COc3ccc(Cl)cc3)CC2)c2nc(C3CC3)oc2n1` [Example 185, 5-amino-2-cyclopropyl-7-[4-(4-chlorophenoxyacetyl)piperazin-1-yl]-oxazolo[5,4-d]pyrimidine], the pIC50 falls from 6.20 to 5.75 (0.45 log units). The first is the more potent here.

Compared with `Nc1nc(N2CCN(CC(=O)N3CCOCC3)CC2)c2nc(-c3ccc(F)cc3)[nH]c2n1` [Example 411, 2-(4-(2-amino-8-(4-fluorophenyl)-9H-purin-6-yl)piperazin-1-yl)-1-morpholinoethanone], `COc1ccccc1NC(=O)N1CCN(c2nc(N)nc3sc(-c4ccc(F)cc4)nc23)CC1` [Example 219, 4-(5-amino-2-(4-fluorophenyl)thiazolo[5,4-d]pyrimidin-7-yl)-N-(2-methoxyphenyl)piperazine-1-carboxamide] is higher in pIC50: < 5.00 for the first, 6.49 for the second.

Compared with `Nc1nc(NC2CCCN(C(=O)OCc3ccccc3)C2)c2nc(CCc3ccc(F)cc3)sc2n1` (stereo not drawn) [Example 145, 5-amino-2-[2-(4-fluorophenyl)ethyl]-7-(1-benzyloxycarbonylpiperidin-3-ylamino)-thiazolo[5,4-d]pyrimidine], `Nc1nc(N2CCN(C(=O)c3ccc(Cl)cc3)CC2)c2nc(CCc3ccc(F)cc3)sc2n1` [Example 135, 5-amino-2-[2-(4-fluorophenyl)ethyl]-7-[4-(4-chlorobenzoyl)piperazin-1-yl]-thiazolo[5,4-d]pyrimidine] is lower in pIC50: 5.36 for the first, < 5.00 for the second.

`Nc1nc(N2CCN(C(=O)C3CCCCC3)CC2)c2cc(-c3ccc(F)cc3)sc2n1` [Example 345, (4-(2-amino-6-(4-fluorophenyl)thieno[2,3-d]pyrimidin-4-yl)piperazin-1-yl)(cyclohexyl)methanone] and `Nc1nc(N2CCCN(C(=O)c3ccc(Cl)cc3)CC2)c2cc(-c3ccccc3)sc2n1` [Example 335, (4-(2-amino-6-phenylthieno[2,3-d]pyrimidin-4-yl)-1,4-diazepan-1-yl)(4-chlorophenyl)methanone] cannot be ordered by pIC50: < 5.00 for the first, < 5.00 for the second.

First: Nc1nc(N2CCN(C(=O)COc3ccc(OC(F)(F)F)cc3)CC2)c2nc(-c3cccnc3)sc2n1 [Example 273, 1-(4-(5-amino-2-(pyridin-3-yl)thiazolo[5,4-d]pyrimidin-7-yl)piperazin-1-yl)-2-(4-trifluoromethoxyphenoxy)ethanone]
Second: Cc1ccc(NC(=O)N2CCN(c3nc(N)nc4sc(-c5ccc(F)cc5)nc34)CC2)cc1 [Example 42, 4-(5-amino-2-(4-fluorophenyl)-thiazolo[5,4-d]pyrimidin-7-yl)-N-p-tolylpiperazine-1-carboxamide]
The pIC50 of the first is 1.20 log units higher: 7.35 for the first, 6.15 for the second.

For `Nc1nc(N2CCN(C(=O)CCc3ccc(Br)cc3)CC2)c2nc(CCc3ccc(F)cc3)sc2n1` [Example 223, 1-(4-(5-amino-2-(4-fluorophenethyl)thiazolo[5,4-d]pyrimidin-7-yl)piperazin-1-yl)-3-(4-bromophenyl)propan-1-one], the pIC50 was < 5.00.

Same assay, conditions: lowest concentration giving 50% inhibition of the MLR; 6 days coculture, 3H-thymidine incorporation

Compared with `COCCCNc1nc(N)nc2sc(-c3ccc(F)cc3)nc12` [Example 32, 2-(4-fluorophenyl)-N-7-(3-methoxypropyl)thiazolo[5,4-d]pyrimidine-5,7-diamine], `COc1ccc(OCC(=O)N2CCN(c3nc(N)nc4sc(-c5ccc(Cl)cc5)nc34)CC2)cc1` [Example 270, 1-(4-(5-amino-2-(4-chlorophenyl)thiazolo[5,4-d]pyrimidin-7-yl)piperazin-1-yl)-2-(4-methoxyphenoxy)ethanone] is higher in pIC50: < 5.00 for the first, 6.82 for the second.
